According to paper PMC9921161, “Antihyaluronidase and Antioxidant Potential of Atriplex sagittata Borkh. in Relation to Phenolic Compounds and Triterpene Saponins” (Molecules, 2023):

Target: Hyaluronidase from bovine testes type I-S (Bos taurus, UniProt Q2YDK3)
Test: Antihyaluronidase activity, spectrophotometric (turbidimetric CTAB) method
Format: biochemical
Conditions: for IC50 hyaluronidase inhibition: pH 4.5, 37 °C
Protocol: Antihyaluronidase activity was determined using a spectrophotometric method described previously. Briefly, extracts after evaporation of methanol were dissolved in DMSO (at concentrations of 0.01–1 mg/mL) and were pre-incubated (10 min, 37 °C) in the presence of the hyaluronidase enzyme (25 µL Hyal, 30 U/mL) and incubation buffer (25 µL, acetate buffer, pH 4.5, […], 0.5 mg/mL albumin). The same procedure was applied to isolated compounds (at concentrations 0.005–1 mg/mL). Next, a solution of hyaluronic acid (25 µL HA, 0.3 mg/mL) was added to the reaction mixtures and the samples were incubated (45 min, 37 °C). After incubation, CTAB (200 µL of 2.5%) solution was added to the reaction mixtures. The inhibitory effect of the tested extracts and saponins on the enzyme activity was determined on the basis of the measurement of the absorbance of the precipitated nonhydrolyzed hyaluronic acid. The study was carried out using a multipurpose plate reader (Synergy HT BioTek, Winooski, VT, USA) at a wavelength of 600 nm. Antihyaluronidase activity was expressed as % enzyme inhibition, as previously described. Quercetin and escin were used as positive controls in the range of concentrations (10–1000 µg/mL corresponding to the analyzed substances (see Table 4).

[1] = read-out: Hyaluronidase Inhibition [%]

Sequence of Hyaluronidase from bovine testes type I-S (Q2YDK3 entry or part of it): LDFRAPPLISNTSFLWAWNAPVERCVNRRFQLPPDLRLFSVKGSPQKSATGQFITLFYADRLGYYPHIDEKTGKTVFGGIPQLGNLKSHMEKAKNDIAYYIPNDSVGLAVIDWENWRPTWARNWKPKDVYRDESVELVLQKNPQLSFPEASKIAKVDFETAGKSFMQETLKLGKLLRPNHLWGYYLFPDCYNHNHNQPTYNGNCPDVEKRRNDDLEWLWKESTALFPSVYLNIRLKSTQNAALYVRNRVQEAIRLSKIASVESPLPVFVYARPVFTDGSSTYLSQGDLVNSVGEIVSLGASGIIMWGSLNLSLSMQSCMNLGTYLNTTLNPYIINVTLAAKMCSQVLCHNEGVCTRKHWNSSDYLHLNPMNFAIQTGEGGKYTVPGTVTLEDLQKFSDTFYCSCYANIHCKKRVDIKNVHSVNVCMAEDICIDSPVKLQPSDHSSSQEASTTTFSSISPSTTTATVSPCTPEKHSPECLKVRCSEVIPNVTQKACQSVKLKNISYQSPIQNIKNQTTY

## O=c1c(O)c(-c2ccc(O)c(O)c2)oc2cc(O)cc(O)c12 [quercetin]
  IC50 hyaluronidase inhibition: 514.28 µg/mL
[1]
  inhibition at 10 µg/mL: 0.61 ± 0.53%
  inhibition at 20 µg/mL: 0.62 ± 0.54%
  inhibition at 50 µg/mL: 1.24 ± 0.99%
  inhibition at 100 µg/mL: 4.39 ± 0.88%
  inhibition at 200 µg/mL: 13.9 ± 2.7%
  inhibition at 300 µg/mL: 21.9 ± 4.04%
  inhibition at 500 µg/mL: 38.8 ± 1.33%
  inhibition at 700 µg/mL: 80.56 ± 0.49%
  inhibition at 1000 µg/mL: 91.1 ± 1.5%

## escin
  IC50 hyaluronidase inhibition: 307.38 µg/mL
